# Measurements taken from patent US20180000778A1, “SMALL MOLECULE ANTAGONISTS OF DUSP5 AND METHODS OF USE” (THE MEDICAL COLLEGE OF WISCONSIN, INC., priority 2015, published 2018).
# Where “and” joins values, the source holds several entries; their conditions need not be identical. Equal entries are not always repeated. Structures can show the parent of a compound that is named as a salt.
# What was measured:
# phosphatase [1] = conditions: cited from earlier work
# full-length DUSP5 = biological target: T1, full-length DUSP5 (Homo sapiens, UniProt Q16690); assay: ERK dephosphorylation assay, full-length DUSP5 with pERK2 substrate, western blot; type: biochemical
# T1 construct: an assay was development using ERK2 and full-length DUSP5
# T1 sequence (Q16690 1-384): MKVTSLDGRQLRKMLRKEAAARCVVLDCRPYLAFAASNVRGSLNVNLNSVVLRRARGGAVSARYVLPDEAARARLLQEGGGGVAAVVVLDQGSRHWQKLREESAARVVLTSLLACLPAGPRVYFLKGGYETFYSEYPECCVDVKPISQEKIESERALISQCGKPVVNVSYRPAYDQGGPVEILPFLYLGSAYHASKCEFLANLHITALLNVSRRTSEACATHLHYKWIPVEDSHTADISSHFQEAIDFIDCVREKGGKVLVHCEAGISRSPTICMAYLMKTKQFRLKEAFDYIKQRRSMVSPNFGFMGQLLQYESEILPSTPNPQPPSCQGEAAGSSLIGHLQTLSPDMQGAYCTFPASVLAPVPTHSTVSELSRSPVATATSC
# Protocol: ERK Dephosphorylation Assay.
# For this assay, 10 ng of GST-tagged recombinant phosphorylated ERK2 (R&D Systems, 1230-KS) was incubated with and without the indicated DUSP5 proteins (0.5 nM final concentration) for 15 min at room temperature, with or without the indicated drugs. The reactions were halted with 2× Laemmli sample buffer and subjected to SDS-PAGE. The proteins were transferred to polyvinylidene difluoride (PVDF) and immunoblotted using antibodies to pERK (Cell Signaling Tech., #9106) and Total ERK (Cell Signaling Tech., #9102). Bound antibodies were visualized using horseradish peroxidase-linked anti-mouse IgG (Cell Signaling Tech, #7076S) and anti-rabbit IgG (Cell Signaling Tech, #7074S), respectively, and ECL reagents (Pierce, 34708) according to the manufacturer's protocol. IC50s were calculated using GraphPad Prism 6 software.
# And, the native substrate for DUSP5 is the pERK2 protein, which is much larger and capable of a more complicated range of inter-molecular interactions that the pNPP substrate (which is intended only to mimic the phospho-tyrosine of pERK). […] To this end, an assay was development using ERK2 and full-length DUSP5, monitoring pERK levels in a western blot, as a function of pERK2 substrate concentration. […] This surprising increase in potency for CSD3-2320 (but not NTS) with full length DUSP5 underscores the importance of performing secondary assays with biologically relevant forms of enzyme and substrate.
# DUSP5 PD(WT) [2] = biological target: T2, DUSP5 PD(WT) (Homo sapiens, UniProt Q16690); assay: pNPP phosphatase activity assay with DUSP5 PD(WT); type: biochemical
# T2 construct: hexa-histidine (N); made in house; host or cells: E. coli BL21(DE3)
# T2 sequence (Q16690 178-319 limits assumed): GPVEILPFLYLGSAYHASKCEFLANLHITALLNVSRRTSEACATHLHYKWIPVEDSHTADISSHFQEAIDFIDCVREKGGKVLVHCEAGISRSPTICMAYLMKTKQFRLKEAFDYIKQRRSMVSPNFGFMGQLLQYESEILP
# Text: p-Nitrophenolphosphatase (pNPP) Activity Assay.
# To measure enzymatic activity of the DUSP5 PD and the inhibitory capacity of selected molecules, an in vitro phosphatase assay was developed based on previous studies (27). In this assay, DUSP5 PD dephosphorylates the substrate p-nitrophenol phosphate (pNPP, Sigma Aldrich), yielding p-nitrophenolate, which absorbs at 405 nm with an extinction coefficient of 18,000 M-1 cm-1.
# Thus, an increase in absorbance at 405 nm corresponds to the turnover of pNPP top-nitrophenolate. The assay was initially optimized in 1 mL quartz cuvettes, then was subsequently optimized for and validated in a 96-well plate format. All IC50 values were obtained using the 96-well plate assay format (see below). The assay buffer contained 100 mM Tris, 100 mM sodium chloride, 5 mM magnesium chloride, and 1 mM dithiothreitol (DTT) at pH 7.5. The pNPP substrate was prepared as a 50 mM stock by dissolving the solid substrate in assay buffer. The DUSP5 PD and pNPP were assayed initially in a cuvette (1 mL total volume) and initial velocities were fitted to the Michaelis-Menten equation (1)
# where v is the initial velocity, Vmax is the maximum velocity, Km is the Michaelis constant, and [S] is the concentration of pNPP. Data were fitted using a nonlinear least squares fit to eq. 1, with GraphPad Prism 6 software.
# For the 96-well plate validation assay, sodium orthovanadate (Sigma Aldrich) was utilized as a positive control for inhibition (Swarup et al., Biochem Biophys Res Commun. 1982; 107:1104-9.) at a final concentration of 10 μM, to completely block activity. All plate assays were performed in standard 96-well clear bottom plates (Thermo Scientific Nunc) with a total assay volume of 200 μL, using a SpectraMax M5 Microplate Reader (Molecular Devices). The plate validation assay was performed with replicate columns of positive control wells, negative control wells and blank wells. Blank columns contained only buffer and pNPP. Negative control (uninhibited) contained buffer, pNPP, and DUSP5 PD; and, positive control contained the same components, but also contained 10 μM sodium orthovanadate. The plate was then shaken and allowed to equilibrate in the spectrophotometer at 25° C. for 30 min. After incubation, 4 μL of a […] was dispensed into appropriate wells utilizing a single-channel pipette. This produced a final enzyme concentration of 1 μM. Before a read was taken, the plate was shaken for five seconds. The initial rate for the DUSP5 PD reaction was linear for approximately 90 min; and, the plate was kept in the spectrophotometer at 25° C. for an additional 80 min after the kinetic read. The endpoint reading was subsequently taken at 90 min after initiation of reaction. Slopes from the kinetic read, as well as single-point absorbance values at the 90-minute endpoint read, were then averaged. For blank wells and positive control wells, both slope values (continuous assay) and single point absorbance values (fixed time assay) were approximately zero, as expected. Standard deviations were calculated and a Z′ value (Zhang et al., J Biomol Screening. 1999; 4:67-73) subsequently determined using the following equation: […]
# IC50 values were obtained using the assay described above, in 96 well plates. The maximum inhibitor concentration screened in any plate was […] and the minimum was 1.5 μM. The IC50 plate was designed so that the first column of wells served as blanks, with wells containing only buffer and substrate. The second column of wells functioned as the plate negative control, with each well containing buffer, substrate and enzyme. The remaining wells in the plate contained buffer, substrate, enzyme, and varying amounts of inhibitor, with inhibitor concentration increasing from left to right across the plate. Data points were collected in triplicate, and inhibitor concentrations were chosen to provide data equally spread on a logarithmic scale. […]
# DUSP5 (PD)-WT = biological target: T3, DUSP5 (PD)-WT (Homo sapiens, UniProt Q16690); assay: Phosphatase inhibition profiles (Table 4), initial rates; type: biochemical; conditions: read-out: IC50 DUSP5 (PD)-WT (mean ± SE)
# T3 construct: hexa-histidine (N); made in house; host or cells: E. coli BL21(DE3)
# T3 sequence (Q16690 178-319): T2 sequence (Q16690 178-319 limits assumed)
# PTPN1 = biological target: T4, PTPN1 (Homo sapiens, UniProt P18031); assay: as above; type: biochemical; conditions: read-out: IC50 PTPN1 (mean ± SE)
# T4 sequence (P18031 1-435): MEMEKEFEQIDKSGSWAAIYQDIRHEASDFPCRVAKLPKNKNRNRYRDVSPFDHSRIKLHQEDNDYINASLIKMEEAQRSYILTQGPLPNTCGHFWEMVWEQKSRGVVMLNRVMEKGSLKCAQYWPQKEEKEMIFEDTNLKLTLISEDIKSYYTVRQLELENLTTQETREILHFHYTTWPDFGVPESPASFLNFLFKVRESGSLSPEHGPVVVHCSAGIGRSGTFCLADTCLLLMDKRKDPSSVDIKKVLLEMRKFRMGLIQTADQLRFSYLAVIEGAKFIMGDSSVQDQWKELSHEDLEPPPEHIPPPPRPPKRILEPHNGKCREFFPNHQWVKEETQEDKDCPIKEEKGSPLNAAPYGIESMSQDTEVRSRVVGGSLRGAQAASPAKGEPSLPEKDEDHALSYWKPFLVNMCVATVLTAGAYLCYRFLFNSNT
# [3] = Aggregation of compounds (nephelometry; detergent treatment); type: physicochemical
# Protocol: Nephelometry is a technique for measuring the relative aggregation of particles in solution, based on the light-scattering properties of molecular aggregates (30). To explore the ability of the chemicals studied herein to form aggregates, which can lead to artifactual inhibition effects, nephelometry was performed. Compounds were tested for aggregation in 96-well plates using a buffer containing 100 mM Tris base, 100 mM sodium chloride, and 5 mM magnesium chloride at pH 7.5. Each compound analyzed in these experiments contained concentrations of compound ranging from 10-100 μM, recorded in quadruplet. Each plate was analyzed at two separate gain values of 52 and 72. Data were collected using a BMG NEPHELOstar Plus, equipped with a 635 nm laser.
# To investigate whether Suramin aggregates in solution, a property often investigated with small molecules, we performed detergent treatment assays. […] NTS and Suramin were compared using DUSP5 PD IC50 assays performed with and without detergent. […] We concluded that Suramin forms aggregates in vitro which can lead to non-specific protein inhibition effects. Beyond any adverse implications for repurposing Suramin in this project, the aggregation phenomenon raises more global concerns regarding the current clinical use of Suramin, and may in part explain some of the known toxicity associated with Suramin (32).
# SHP-1 = SHP-1 (Homo sapiens, UniProt P29350); assay: NCI compound library screen, phosphatase inhibitory activity; type: biochemical
# Sequence of SHP-1 (P29350 whole entry): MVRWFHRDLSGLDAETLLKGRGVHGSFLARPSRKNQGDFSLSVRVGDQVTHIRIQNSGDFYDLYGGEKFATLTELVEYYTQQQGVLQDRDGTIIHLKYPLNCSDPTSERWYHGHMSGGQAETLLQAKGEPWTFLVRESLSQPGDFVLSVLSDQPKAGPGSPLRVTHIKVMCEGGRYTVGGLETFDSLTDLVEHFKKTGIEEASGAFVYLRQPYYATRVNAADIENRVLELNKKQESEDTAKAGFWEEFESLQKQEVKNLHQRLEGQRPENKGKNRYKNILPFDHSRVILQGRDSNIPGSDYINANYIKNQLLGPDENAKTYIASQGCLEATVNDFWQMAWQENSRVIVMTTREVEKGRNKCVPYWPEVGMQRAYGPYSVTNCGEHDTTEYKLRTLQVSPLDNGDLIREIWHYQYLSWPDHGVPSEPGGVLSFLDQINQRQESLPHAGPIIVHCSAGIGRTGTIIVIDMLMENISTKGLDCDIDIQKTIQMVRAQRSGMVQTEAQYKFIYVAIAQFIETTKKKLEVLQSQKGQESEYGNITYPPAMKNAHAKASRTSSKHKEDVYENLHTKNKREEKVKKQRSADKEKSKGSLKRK
# PTP1B = PTP1B (Homo sapiens, UniProt P18031); assay: as above; type: biochemical
# phosphatase [4] = assay: Phosphatase inhibitory activity (Example 3, range of activity); type: biochemical
# [5] = tested on: pERK levels in HUVEC cells; assay: pERK levels in HUVEC cells, western blot; type: cell-based, Human; conditions: HUVECs incubated 2 hours, pERK relative to total ERK; Na3VO4 at 200 μM
# Protocol: Cell Culture and Western Blots.
# Human Umbilical Vein Endothelial Cells (HUVECs) were maintained in EBM2 media (Lonza, CC-3156) supplemented with a combined serum and growth factor kit (Lonza, CC-4176). Cells were incubated with the indicated concentrations of drug for 2 h and lysed with RIPA buffer (Sigma, R0278) on ice. Cell lysates were cleared by centrifugation at 16,300×g for 30 min. The resulting supernatants were isolated and protein concentration determined by Lowry assay (DC protein assay, BioRad). 2× laemmli sample buffer was added to equal amounts of protein and separated by SDS-PAGE. The protein gels were transferred to polyvinylidene difluoride (PVDF) and immunoblotted using antibodies to phosphorylated ERK (Cell Signaling, #9106) and total ERK (Cell Signaling, #9102). Bound antibodies were visualized using horseradish peroxidase-linked anti-rabbit IgG, anti-mouse IgG (Cell Signaling Tech., #7074 and #7076) and ECL reagents (Thermo Scientific, 34080) according to the manufacturer's protocol.
# DUSP5 PD(WT) [6] = biological target: T2, DUSP5 PD(WT); assay: pNPP phosphatase activity assay with DUSP5 PD(WT); type: biochemical; conditions: 1 mL cuvettes, pNPP substrate
smiles,measurement,setting,value
O=S(=O)(O)c1ccc2cc(N=Nc3cc(S(=O)(=O)O)c4cccnc4c3O)ccc2c1 [NSC-87877],"range of phosphatase inhibition, published compound",phosphatase [1],~1.7 mM
"O=S(=O)(O)c1ccc2c(S(=O)(=O)O)cc(S(=O)(=O)O)cc2c1 [NTS, naphthalene 1,3,6-trisulfonate]",IC50,"full-length DUSP5; full-length DUSP5, pERK/ERK2 substrate",221 ± 87 µM
"O=S(=O)(O)c1cc(S(=O)(=O)O)c2[nH]c3c(S(=O)(=O)O)cc(S(=O)(=O)O)cc3c2c1 [RR506, Carbazole-1,3,6,8-tetrasulfonic acid, Tetrasodium Salt]","IC50's, range in words",DUSP5 PD(WT) [2]; enzyme inhibition (FIG. 3),mM range
O=S(=O)(O)c1cc(Oc2cc(S(=O)(=O)O)cc(S(=O)(=O)O)c2O)c(O)c(S(=O)(=O)O)c1 [RR533],IC50,DUSP5 (PD)-WT,26.4 ± 7.2 µM
same,IC50,PTPN1,106 ± 0.1 µM
Nc1cccc2c(O)cc(S(=O)(=O)O)cc12 [RR535],aggregation,[3],do not aggregate
same,IC50,PTPN1,> 1000 µM
same,phosphatase inhibitory activity,SHP-1,phosphatase inhibitory activity
same,phosphatase inhibitory activity,PTP1B,phosphatase inhibitory activity
same,range in which active,phosphatase [4]; monomer,~1e-06 mM
O=S(=O)(O)c1cc(O)c2cccc(N=Nc3cccc4c(O)cc(S(=O)(=O)O)cc34)c2c1 [RR601],aggregation,[3],do not aggregate
same,IC50,DUSP5 (PD)-WT,30 ± 3 µM
same,IC50,PTPN1,2.5 ± 0.1 µM
same,range in which active,phosphatase [4]; dimer,~30 mM
O=S(=O)([O-])c1cc2c(O)c(c1)Cc1cc(S(=O)(=O)[O-])cc(c1O)Cc1cc(S(=O)(=O)[O-])cc(c1O)Cc1cc(S(=O)(=O)[O-])cc(c1O)C2.[Na+].[Na+].[Na+].[Na+] [RR701],"activity in DUSP5:pERK assay, in words","full-length DUSP5; in vitro, western blot",robust activity
Cc1ccc(C(=O)Nc2ccc(S(=O)(=O)O)c3cc(S(=O)(=O)O)cc(S(=O)(=O)O)c23)cc1NC(=O)c1cccc(NC(=O)Nc2cccc(C(=O)Nc3cc(C(=O)Nc4ccc(S(=O)(=O)O)c5cc(S(=O)(=O)O)cc(S(=O)(=O)O)c45)ccc3C)c2)c1 [Suramin],inhibition at 1 µM,"DUSP5 PD(WT) [2]; 1 μM Suramin, 5 mM pNPP, increasing Triton X-100, read-out: plateau level inhibition with increasing detergent",30%
same,effect of detergent on inhibition,DUSP5 PD(WT) [2]; IC50 measurement in presence and absence of 0.5% Triton,loss of some inhibitory capability in the presence of detergent
same,mechanism of inhibition,DUSP5 PD(WT) [2]; inhibition profile versus pNPP,competitive inhibition
same,Ki,"DUSP5 PD(WT) [2]; read-out: Ki, competitive inhibition, varied pNPP and inhibitor",24.6 µM and 25 µM
same,effect on pERK levels,[5],significant decrease in pERK levels
same,aggregation,[3],Aggregates
[Na+].[Na+].[Na+].[O]=[V]([O-])([O-])[O-] [sodium orthovanadate],effect on pERK levels,[5],expected increase in pERK levels
same,IC50,DUSP5 PD(WT) [6],0.008 ± 0.008 µM
